Results from the NIST ThermoML archive (doi:10.1021/acs.jced.7b00106).
Numbers after ± are expanded uncertainties.

Conditions: Hot wire method

FC(F)(F)/C=C/Cl [(E)-1-chloro-3,3,3-trifluoroprop-1-ene]
Conditions	thermal conductivity [W/m/K]
283.61 K, 46184 kPa, Liquid	0.1051 ± 0.0033
283.62 K, 194 kPa, Liquid	0.08723 ± 0.0028
283.64 K, 39507 kPa, Liquid	0.1031 ± 0.0037
283.71 K, 33240 kPa, Liquid	0.1008 ± 0.0031
283.73 K, 64639 kPa, Liquid	0.1101 ± 0.0037
283.76 K, 27097 kPa, Liquid	0.09854 ± 0.0042
283.77 K, 55316 kPa, Liquid	0.1077 ± 0.0038
283.82 K, 46190 kPa, Liquid	0.1049 ± 0.0036
283.86 K, 39512 kPa, Liquid	0.1027 ± 0.0045
283.93 K, 33245 kPa, Liquid	0.1004 ± 0.0031
283.99 K, 27090 kPa, Liquid	0.0982 ± 0.0034
301.07 K, 36400 kPa, Liquid	0.09652 ± 0.0053
301.1 K, 25797 kPa, Liquid	0.09286 ± 0.0055
301.12 K, 8081 kPa, Liquid	0.08639 ± 0.017
301.14 K, 16454 kPa, Liquid	0.08935 ± 0.013
301.14 K, 36402 kPa, Liquid	0.09595 ± 0.015
301.16 K, 25808 kPa, Liquid	0.09205 ± 0.016
301.18 K, 7827 kPa, Liquid	0.08636 ± 0.0037
301.18 K, 8082 kPa, Liquid	0.08488 ± 0.0056
301.18 K, 25511 kPa, Liquid	0.09374 ± 0.021
301.2 K, 16447 kPa, Liquid	0.08939 ± 0.015
301.24 K, 25515 kPa, Liquid	0.09289 ± 0.011
301.25 K, 302 kPa, Liquid	0.08142 ± 0.0067
301.25 K, 4078 kPa, Liquid	0.08444 ± 0.0047
301.25 K, 7830 kPa, Liquid	0.08532 ± 0.0054
301.27 K, 16013 kPa, Liquid	0.08986 ± 0.015
301.31 K, 4086 kPa, Liquid	0.08339 ± 0.0048
301.33 K, 303 kPa, Liquid	0.08177 ± 0.0036
301.39 K, 62986 kPa, Liquid	0.1067 ± 0.021
301.41 K, 56492 kPa, Liquid	0.1055 ± 0.0053
301.42 K, 48436 kPa, Liquid	0.1008 ± 0.007
301.43 K, 65550 kPa, Liquid	0.1085 ± 0.026
301.44 K, 36396 kPa, Liquid	0.09731 ± 0.0041
301.47 K, 62992 kPa, Liquid	0.1061 ± 0.019
301.48 K, 42020 kPa, Liquid	0.09884 ± 0.0035
301.49 K, 25801 kPa, Liquid	0.09292 ± 0.0053
301.49 K, 56482 kPa, Liquid	0.1049 ± 0.0032
301.5 K, 36232 kPa, Liquid	0.09714 ± 0.0039
301.5 K, 48438 kPa, Liquid	0.1006 ± 0.01
301.5 K, 65547 kPa, Liquid	0.1082 ± 0.025
301.52 K, 47198 kPa, Liquid	0.101 ± 0.0072
301.53 K, 8090 kPa, Liquid	0.08523 ± 0.0093
301.53 K, 36388 kPa, Liquid	0.09726 ± 0.0039
301.54 K, 16449 kPa, Liquid	0.09014 ± 0.004
301.54 K, 20530 kPa, Liquid	0.09027 ± 0.0071
301.55 K, 25503 kPa, Liquid	0.09319 ± 0.0051
301.55 K, 30551 kPa, Liquid	0.09454 ± 0.0037
301.56 K, 143 kPa, Gas	0.01127 ± 0.00042
301.56 K, 145 kPa, Gas	0.01102 ± 0.00042
301.56 K, 42014 kPa, Liquid	0.09907 ± 0.003
301.57 K, 36234 kPa, Liquid	0.09632 ± 0.0086
301.58 K, 25794 kPa, Liquid	0.0925 ± 0.004
301.59 K, 122 kPa, Gas	0.01123 ± 0.0004
301.59 K, 131 kPa, Gas	0.01121 ± 0.0004
301.6 K, 7831 kPa, Liquid	0.08616 ± 0.0062
301.6 K, 11892 kPa, Liquid	0.08784 ± 0.0049
301.6 K, 47198 kPa, Liquid	0.1006 ± 0.0035
301.61 K, 16007 kPa, Liquid	0.08871 ± 0.0068
301.62 K, 8093 kPa, Liquid	0.08518 ± 0.0028
301.63 K, 367 kPa, Liquid	0.08213 ± 0.0044
301.63 K, 7868 kPa, Liquid	0.08523 ± 0.0038
301.63 K, 16455 kPa, Liquid	0.08833 ± 0.0033
301.63 K, 20523 kPa, Liquid	0.09097 ± 0.0072
301.63 K, 30560 kPa, Liquid	0.09455 ± 0.0037
301.65 K, 25502 kPa, Liquid	0.09219 ± 0.0087
301.68 K, 4077 kPa, Liquid	0.08414 ± 0.0043
301.69 K, 311 kPa, Liquid	0.08156 ± 0.0027
301.69 K, 11881 kPa, Liquid	0.08767 ± 0.0027
301.69 K, 16012 kPa, Liquid	0.08885 ± 0.009
301.7 K, 7834 kPa, Liquid	0.08567 ± 0.0026
301.72 K, 7864 kPa, Liquid	0.08629 ± 0.0042
301.73 K, 363 kPa, Liquid	0.08194 ± 0.0031
